The source made the active and inactive calls. The rule behind the calls is not given here.
How the values were obtained:
[1] = Renal toxicity in C57BL/6J mouse assessed as reduction in BUN level at 30 mg/kg, ip (Rvb= 8.9 mmol/L); format: organism-based; settings: in vivo
[2] = tested on: Mus musculus; experiment: Antiinflammatory activity against cisplatin-induced acute kidney injury in C57BL/6J mouse model assessed as reduction in ischemic symptoms at 30 mg/kg, ip pretreated for 1 hr followed by cisplatin administration and measured after 72 hrs relative to control; format: functional, organism-based; settings: time 73.0 hrs
[3] = tested on: L02; experiment: Cytotoxicity against human L02 cells assessed as reduction in cell viability at <10 uM by MTT assay; format: toxicity, cell-based; settings: l02, 10 µM
[4] = Toxicity in cisplatin-induced acute kidney injury in C57BL/6J mouse model assessed as morphological abnormalities in heart at 30 to 60 mg/kg, ip pretreated for 1 hr followed by cisplatin administration and measured after 72 hrs by H and E staining based analysis; format: organism-based; settings: in vivo, 73 h, dose 30-60 mg/kg
[5] = target: Protein cereblon/Stimulator of interferon genes protein (Homo sapiens, UniProt Q96SW2+Q86WV6); experiment: Protac activity at CRBN/STING in human THP-1 cells assessed as increase in STING degradation at 10 uM pretreated with lysosome inhibitor BAF for 1 hr followed by compound addition and measured after 48 hrs by Western blot analysis; format: cell-based
[6] = AUC (0 to t) in Sprague-Dawley rat at 2 mg/kg, iv measured upto 48 hrs by UPLC-triple quadrupole MS analysis; format: ADME, organism-based; set-up: time < 48 hrs, dose 2 mg/kg, route iv; settings: in vivo
[7] = In vivo inhibition of STING signalling pathway in cisplatin-induced acute kidney injury in C57BL/6J mouse model assessed as reduction in STING protein expression in kidney at 30 mg/kg, ip pretreated for 1 hr followed by cisplatin administration and measured after 72 hrs by Western blot analysis (Rvb= 375%); format: functional; set-up: scale not given: the % may be the effect or the level left; settings: time 73 hrs
[8] = Cytotoxicity against mouse C17.2 cells assessed as reduction in cell viability at <10 uM by MTT assay; format: toxicity, cell-based; settings: c17.2, 10 µM
[9] = Renal toxicity in C57BL/6J mouse assessed as reduction in creatinine level at 60 mg/kg, ip (Rvb= 8.5 umol/L); format: organism-based; settings: in vivo
[10] = tested on: Mus musculus; experiment: In vivo inhibition of STING signalling pathway in ip dosed cisplatin-induced acute kidney injury in C57BL/6J mouse model assessed as reduction in CXCL10 expression in blood of mouse eyeballs pretreated for 1 hr followed by cisplatin administration and measured after 72 hrs by ELISA; format: functional, organism-based; settings: time 73.0 hrs, DDE = dose-dependent effect
[11] = Tmax in Sprague-Dawley rat at 20 mg/kg, po measured upto 48 hrs by UPLC-triple quadrupole MS analysis; format: ADME, organism-based; settings: in vivo
[12] = tested on: Mus musculus; experiment: Antiinflammatory activity against cisplatin-induced acute kidney injury in C57BL/6J mouse model assessed as reduction in kidney weight at 30 mg/kg, ip pretreated for 1 hr followed by cisplatin administration and measured after 72 hrs relative to control; format: functional; set-up: scale not given: the % may be the effect or the level left; settings: time 73 hrs
[13] = Cytotoxicity against mouse C17.2 cells assessed as cell growth inhibition at 30 uM by MTT assay relative to control; format: toxicity, cell-based
[14] = Half life in Sprague-Dawley rat at 2 mg/kg, iv measured upto 48 hrs by UPLC-triple quadrupole MS analysis; format: ADME, organism-based; settings: in vivo
[15] = Renal toxicity in C57BL/6J mouse assessed as reduction in creatinine level at 30 mg/kg, ip (Rvb= 8.5 umol/L); format: organism-based; settings: in vivo
[16] = target: Stimulator of interferon genes protein (Homo sapiens) (UniProt Q86WV6); experiment: Inhibition of STING pathway in human THP-1 cells assessed as inhibition of cGAMP-triggered pTBK1 expression preincubated for 2 hrs followed by cGAMP stimulation and measured after 24 hrs by Western blot analysis; format: cell-based; settings: dose 0-20 µM, time 26.0 hrs, DDE = dose-dependent effect
[17] = Toxicity in cisplatin-induced acute kidney injury in C57BL/6J mouse model assessed as vacuole like changes in kidney at 30 to 60 mg/kg, ip pretreated for 1 hr followed by cisplatin administration and measured after 72 hrs by H and E staining based analysis; format: organism-based; settings: in vivo, 73 h, dose 30-60 mg/kg
[18] = Toxicity in C57BL/6J mouse model of cisplatin-induced acute kidney injury assessed as survival rate at 60 mg/kg, ip pretreated for 1 hr followed by cisplatin administration and measured after 72 hrs relative to control; format: organism-based; settings: in vivo, 73 h
[19] = AUC (0 to infinity) in Sprague-Dawley rat at 20 mg/kg, po measured upto 48 hrs by UPLC-triple quadrupole MS analysis; format: ADME, organism-based; set-up: dose 20 mg/kg, time < 48 hrs, route po; settings: in vivo
[20] = tested on: Mus musculus; experiment: Renal protective activity against cisplatin-induced acute kidney injury in C57BL/6J mouse model assessed as clear cortical medullary demarcation at 60 mg/kg, ip by NMR based analysis; format: functional, organism-based
[21] = Cytotoxicity against HEK293-A cells assessed as reduction in cell viability at <10 uM by MTT assay; format: toxicity, cell-based; settings: human
[22] = tested on: Mus musculus; experiment: Antiinflammatory activity against cisplatin-induced acute kidney injury in C57BL/6J mouse model assessed as reduction in kidney weight at 60 mg/kg, ip pretreated for 1 hr followed by cisplatin administration and measured after 72 hrs relative to control; format: functional; set-up: scale not given: the % may be the effect or the level left; settings: time 73 hrs
[23] = Half life in Sprague-Dawley rat at 20 mg/kg, po measured upto 48 hrs by UPLC-triple quadrupole MS analysis; format: ADME, organism-based; settings: in vivo
[24] = tested on: THP-1; experiment: Inhibition of cGAS-STING signalling pathway in human THP-1 cells assessed as downregulation of cGAMP-triggered IFN-beta expression preincubated for 2 hrs followed by cGAMP stimulation and measured after 24 hrs by ELISA; format: cell-based; settings: dose 2.5-20 µM, time 26.0 hrs, DDE = dose-dependent effect
[25] = AUC (0 to infinity) in Sprague-Dawley rat at 2 mg/kg, iv measured upto 48 hrs by UPLC-triple quadrupole MS analysis; format: ADME, organism-based; set-up: time < 48 hrs, dose 2 mg/kg, route iv; settings: in vivo
[26] = Apparent volume of distribution in Sprague-Dawley rat at 20 mg/kg, po measured upto 48 hrs by UPLC-triple quadrupole MS analysis; format: ADME, organism-based; settings: in vivo
[27] = Clearance in Sprague-Dawley rat at 20 mg/kg, po measured upto 48 hrs by UPLC-triple quadrupole MS analysis; format: ADME, organism-based; settings: in vivo
[28] = target: Stimulator of interferon genes protein (Homo sapiens) (UniProt Q86WV6); experiment: Inhibition of STING pathway in human THP-1 cells assessed as inhibition of cGAMP-triggered NF-kappaB p-p65 expression preincubated for 2 hrs followed by cGAMP stimulation and measured after 24 hrs by Western blot analysis; format: cell-based; settings: dose 0-20 µM, time 26.0 hrs, DDE = dose-dependent effect

Chain of Stimulator of interferon genes protein (Homo sapiens) (Q86WV6 whole entry): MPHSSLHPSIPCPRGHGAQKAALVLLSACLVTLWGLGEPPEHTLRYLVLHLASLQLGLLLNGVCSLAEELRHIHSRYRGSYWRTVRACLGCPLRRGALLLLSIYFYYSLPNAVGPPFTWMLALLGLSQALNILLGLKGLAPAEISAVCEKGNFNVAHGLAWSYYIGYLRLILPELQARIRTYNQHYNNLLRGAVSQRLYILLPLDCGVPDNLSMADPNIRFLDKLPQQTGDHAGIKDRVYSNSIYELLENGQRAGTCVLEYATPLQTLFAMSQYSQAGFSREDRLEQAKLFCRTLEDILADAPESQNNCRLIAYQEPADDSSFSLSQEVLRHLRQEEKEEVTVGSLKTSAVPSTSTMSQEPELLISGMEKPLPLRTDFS
Chain of Protein cereblon/Stimulator of interferon genes protein (Q86WV6 whole entry, looked up): as the sequence (Q86WV6 whole entry) above
Chain of Protein cereblon/Stimulator of interferon genes protein (Q96SW2 whole entry, looked up): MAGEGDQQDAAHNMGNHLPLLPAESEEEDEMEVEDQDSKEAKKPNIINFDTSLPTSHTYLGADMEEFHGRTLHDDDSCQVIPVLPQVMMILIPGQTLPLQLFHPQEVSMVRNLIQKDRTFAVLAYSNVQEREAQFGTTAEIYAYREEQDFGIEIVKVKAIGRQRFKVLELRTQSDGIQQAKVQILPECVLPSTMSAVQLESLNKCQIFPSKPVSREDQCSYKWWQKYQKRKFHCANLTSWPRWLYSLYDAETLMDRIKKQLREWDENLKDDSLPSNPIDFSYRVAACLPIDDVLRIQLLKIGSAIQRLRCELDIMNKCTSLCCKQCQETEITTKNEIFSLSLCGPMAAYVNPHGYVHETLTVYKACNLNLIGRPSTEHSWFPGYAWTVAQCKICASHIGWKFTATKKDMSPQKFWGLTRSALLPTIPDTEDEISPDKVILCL

O=C(/C=C/C(=O)Nc1ccc(NC(=O)c2ccc([N+](=O)[O-])o2)cc1)NCCCCCCNc1cccc2c1C(=O)N(C1CCC(=O)NC1=O)C2=O (stereo not drawn)
Activity [1]: 27.2 mmol/L | Activity [2]: Active | Activity [3]: Non-Toxic | Activity [4]: Non-Toxic | Activity [5]: Active | AUC(0-t) at 48 h [6]: 257 ng·h/mL | Activity [7]: 150% | Activity [8]: Non-Toxic | Activity [9]: 14.8 µmol/L | inhibition [10]: Dde | Tmax [11]: 3.71 h | Activity [12]: 14% | inhibition at 30 µM [13]: 15.6% | half-life [14]: 3.86 h | Activity [15]: 26.8 µmol/L | inhibition [16]: Dde | Activity [17]: Non-Toxic | Survival [18]: 100% | AUC(0-inf) [19]: 55.7 ng·h/mL | Activity [20]: Active | Activity [21]: Non-Toxic | Activity [22]: 26% | half-life [23]: 7.36 h | Activity [24]: Dde | AUC(0-inf) [25]: 259 ng·h/mL | Vz [26]: 4480.43 L/kg | CL/F [27]: 429 L/h/kg | inhibition [28]: Dde

From ChEMBL document CHEMBL5154887, “Novel CRBN-Recruiting Proteolysis-Targeting Chimeras as Degraders of Stimulator of Interferon Genes with In Vivo Anti-Inflammatory Efficacy” (J Med Chem, 2022)
